Results: patent US6274715A, “Tricyclic erythromycin derivatives” (priority 1997, dated 2001)
≈ marks a conversion by molar mass, not a printed value.

Tests used:
Type in all cases: cell-based
STR[…] 508 = assay: In vitro antibacterial activity, MIC, BHI agar dilution; conditions: S. agalactiae CMX 508, unit assumed
Procedure, shortened: (§1)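 BHI agar dilution: twelve plates with successive compound dilutions, inoculated by replicator with 1:100 culture dilutions (1:10 for slow growers such as Micrococcus and Streptococcus), 20 to 24 hours at 35-37° C. MIC was the lowest concentration giving no growth, slight haze or sparse isolated colonies versus drug-free control; erythromycin A as class reference.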

M[…] ATCC 9341 = assay: as above; conditions: M. luteus ATCC 9341, unit assumed
Procedure, shortened: as §1

M[…] ATCC 4698 = assay: as above; conditions: M. luteus ATCC 4698, unit assumed
Procedure, shortened: as §1

EN[…] ATCC 8043 = assay: as above; conditions: E. faecium ATCC 8043, unit assumed
Procedure, shortened: as §1

ESCHERICHIA COLI DC-2 = assay: as above; conditions: E. coli DC-2, unit assumed
[1] = tested on: STREPTOCOCCUS PYOGENES PIU 2548; assay: as above; conditions: S. pyogenes PIU 2548, unit assumed
[2] = tested on: STAPHYLOCOCCUS AUREUS 1775; assay: as above; conditions: S. aureus 1775, unit assumed
[3] = tested on: ACINETOBACTER CALCOACETICUS CMX 669; assay: as above; conditions: A. calcoaceticus CMX 669, unit assumed
[4] = tested on: PSEUDOMONAS AERUGINOSA 5007; assay: as above; conditions: P. aeruginosa 5007, unit assumed
[5] = tested on: STAPHYLOCOCCUS AUREUS ATCC 6538P; assay: as above; conditions: S. aureus ATCC 6538P, 35-37° C., 20 to 24 hours, unit assumed
ESCHERICHIA COLI JUHL = conditions: E. coli JUHL; BHI agar; unit assumed
[6] = tested on: STAPHYLOCOCCUS AUREUS CMX 553; assay: In vitro antibacterial activity, MIC, BHI agar dilution; conditions: S. aureus CMX 553, unit assumed
[7] = tested on: PSEUDOMONAS AERUGINOSA K799/61; assay: as above; conditions: P. aeruginosa K799/61, unit assumed
ESCHERICHIA COLI KNK 437 = conditions: E. coli KNK 437; BHI agar; unit assumed
PSEUDOMONAS CEPACIA 296I = assay: In vitro antibacterial activity, MIC, BHI agar dilution; conditions: P. cepacia 296I, unit assumed
[8] = tested on: PSEUDOMONAS AERUGINOSA BMH10; assay: as above; conditions: P. aeruginosa BMH10, unit assumed
[9] = tested on: KLEBSIELLA PNEUMONIAE ATCC 8045; assay: as above; conditions: K. pneumoniae ATCC 8045, unit assumed
[10] = tested on: PSEUDOMONAS AERUGINOSA DPHD-5263; assay: as above; conditions: P. aeruginosa DPHD-5263, unit assumed
[11] = tested on: STAPHYLOCOCCUS EPIDERMIDIS 3519; conditions: S. epidermidis 3519; BHI agar; unit assumed
[12] = tested on: MYCOBACTERIUM SMEGMATIS ATCC 114; assay: In vitro antibacterial activity, MIC, BHI agar dilution; conditions: M. smegmatis ATCC 114, unit assumed
ESCHERICHIA COLI H560 = assay: as above; conditions: E. coli H560, unit assumed
[13] = tested on: STAPHYLOCOCCUS AUREUS A-5278; assay: as above; conditions: S. aureus A-5278, unit assumed
[14] = tested on: PSEUDOMONAS AERUGINOSA K799/WT; assay: as above; conditions: P. aeruginosa K799/WT, unit assumed
[15] = tested on: STAPHYLOCOCCUS AUREUS A5177; assay: as above; conditions: S. aureus A5177, unit assumed
[16] = tested on: ENTEROBACTER AEROGENES ATCC 13048; assay: as above; conditions: E. aerogenes ATCC 13048, unit assumed
[17] = tested on: STAPHYLOCOCCUS AUREUS CMX 642A; assay: as above; conditions: S. aureus CMX 642A, unit assumed
[18] = tested on: STREPTOCOCCUS BOVIS A-5169; assay: as above; conditions: S. bovis A-5169, unit assumed
[19] = tested on: STREPTOCOCCUS PYOGENES EES61; assay: as above; conditions: S. pyogenes EES61, unit assumed
[20] = tested on: STAPHYLOCOCCUS AUREUS NCTC10649M; assay: as above; conditions: S. aureus NCTC10649M, unit assumed
[21] = tested on: PROVIDENCIA STUARTII CMX 640; conditions: P. stuartii CMX 640; BHI agar; unit assumed
CANDIDA ALBICANS CCH 442 = assay: In vitro antibacterial activity, MIC, BHI agar dilution; conditions: C. albicans CCH 442, unit assumed
H. Influenza Dill AMP R = assay: In vitro antibacterial activity against H. Influenza Dill AMP R, MIC; conditions: separate assay, unit assumed
Protocol: Representative compounds of the present invention were assayed in vitro for antibacterial activity as follows: Twelve petri dishes containing successive aqueous dilutions of the test compound mixed with 10 mL of sterilized Brain Heart Infusion (BHI) agar (Difco 0418-01-5) were prepared. Each plate was inoculated with 1:100 (or 1:10 for slow-growing strains, such as Micrococcus and Streptococcus) dilutions of up to 32 different microorganisms, using a Steers replicator block. The inoculated plates were incubated at 35-37° C. for 20 to 24 hours. In addition, a control plate, using BHI agar containing no test compound, was prepared and incubated at the beginning and end of each test.
After incubation, each plate was visually inspected. The minimum inhibitory concentration (MIC) was defmed as the lowest concentration of drug yielding no growth, a slight haze, or sparsely isolated colonies on the inoculum spot as compared to the growth control.
In a separate assay representative compounds of the invention were assayed in vitro for antibacterial activity against the H. Influenza Dill AMP R strain, according to the protocol described above.

[22] = tested on: PSEUDOMONAS AERUGINOSA DPHD-2862; assay: In vitro antibacterial activity, MIC, BHI agar dilution; conditions: P. aeruginosa DPHD-2862, unit assumed
ESCHERICHIA COLI SS = assay: as above; conditions: E. coli SS, unit assumed
[23] = tested on: STREPTOCOCCUS PYOGENES 930; assay: as above; conditions: S. pyogenes 930, unit assumed

SMILES	MIC (STR[…] 508) [µg/mL]	MIC (M[…] ATCC 9341) [µg/mL]	MIC (M[…] ATCC 4698) [µg/mL]	MIC (EN[…] ATCC 8043) [µg/mL]	MIC (ESCHERICHIA COLI DC-2) [µg/mL]	MIC [1] [µg/mL]	MIC [2] [µg/mL]	MIC [3] [µg/mL]	MIC [4] [µg/mL]	MIC [5] [µg/mL]	MIC (ESCHERICHIA COLI JUHL) [µg/mL]	MIC [6] [µg/mL]	MIC [7] [µg/mL]	MIC (ESCHERICHIA COLI KNK 437) [µg/mL]	MIC (PSEUDOMONAS CEPACIA 296I) [µg/mL]	MIC [8] [µg/mL]	MIC [9] [µg/mL]	MIC [10] [µg/mL]	MIC [11] [µg/mL]	MIC [12] [µg/mL]	other results
CC[C@H]1OC(=O)[C@H](C)C(=O)[C@H](C)[C@@H](O[C@@H]2O[C@H](C)C[C@H](N(C)C)[C@H]2O)[C@](C)(OC)C[C@@H](C)C2=N[C@H](COCc3cc(C)c4ccccc4n3)CN3C(=O)O[C@@]1(C)[C@H]3[C@H]2C [Example 83]	0.01 (≈ 0.0122 µM)	0.05 (≈ 0.0608 µM)	0.39 (≈ 0.474 µM)	0.05 (≈ 0.0608 µM)	> 100	0.39 (≈ 0.474 µM)	> 100	100 (≈ 122 µM)	> 100	0.2 (≈ 0.243 µM)	> 100	0.2 (≈ 0.243 µM)	6.2 (≈ 7.53 µM)	> 100	50 (≈ 60.8 µM)	> 100	> 100	> 100	0.39 (≈ 0.474 µM)	0.39 (≈ 0.474 µM)	MIC (ESCHERICHIA COLI H560): > 100 µg/mL; MIC [13]: > 100 µg/mL; MIC [14]: > 100 µg/mL; MIC [15]: 0.2 µg/mL (≈ 0.243 µM); MIC [16]: > 100 µg/mL; MIC [17]: 0.2 µg/mL (≈ 0.243 µM); MIC [18]: 0.02 µg/mL (≈ 0.0243 µM); MIC [19]: 0.01 µg/mL (≈ 0.0122 µM); MIC [20]: 0.2 µg/mL (≈ 0.243 µM); MIC [21]: > 100 µg/mL; MIC (CANDIDA ALBICANS CCH 442): > 100 µg/mL; MIC (H. Influenza Dill AMP R): 16 µg/mL (≈ 19.4 µM); MIC [22]: > 100 µg/mL; MIC (ESCHERICHIA COLI SS): 1.56 µg/mL (≈ 1.9 µM); MIC [23]: 100 µg/mL (≈ 122 µM)
CC[C@H]1OC(=O)[C@H](C)C(=O)[C@H](C)[C@@H](O[C@@H]2O[C@H](C)C[C@H](N(C)C)[C@H]2O)[C@](C)(OC)C[C@@H](C)C2=N[C@H](CCOCc3ccccc3)CN3C(=O)O[C@@]1(C)[C@H]3[C@H]2C [Example 92]	0.05 (≈ 0.0648 µM)	0.05 (≈ 0.0648 µM)	0.39 (≈ 0.505 µM)	0.1 (≈ 0.13 µM)	> 100	0.39 (≈ 0.505 µM)	> 100	> 100	> 100	0.39 (≈ 0.505 µM)	> 100	0.39 (≈ 0.505 µM)	6.2 (≈ 8.03 µM)	> 100	> 100	> 100	> 100	> 100	0.39 (≈ 0.505 µM)	1.56 (≈ 2.02 µM)	MIC (ESCHERICHIA COLI H560): > 100 µg/mL; MIC [13]: > 100 µg/mL; MIC [14]: > 100 µg/mL; MIC [15]: 0.2 µg/mL (≈ 0.259 µM); MIC [16]: > 100 µg/mL; MIC [17]: 0.39 µg/mL (≈ 0.505 µM); MIC [18]: 0.05 µg/mL (≈ 0.0648 µM); MIC [19]: 0.05 µg/mL (≈ 0.0648 µM); MIC [20]: 0.39 µg/mL (≈ 0.505 µM); MIC [21]: > 100 µg/mL; MIC (CANDIDA ALBICANS CCH 442): > 100 µg/mL; MIC (H. Influenza Dill AMP R): 32 µg/mL (≈ 41.5 µM); MIC [22]: > 100 µg/mL; MIC (ESCHERICHIA COLI SS): 1.56 µg/mL (≈ 2.02 µM); MIC [23]: 100 µg/mL (≈ 130 µM)
CCC1OC(=O)C(C)C(=O)C(C)C(OC2OC(C)CC(N(C)C)C2O)C(C)(OC)CC(C)C2=NC(COCSC)CN3C(=O)OC1(C)C3C2C (stereo not drawn) [Example 99]	0.05 (≈ 0.0687 µM)	0.1 (≈ 0.137 µM)	0.39 (≈ 0.536 µM)	0.1 (≈ 0.137 µM)	> 100	0.39 (≈ 0.536 µM)	> 100	100 (≈ 137 µM)	> 100	0.39 (≈ 0.536 µM)	> 100	0.39 (≈ 0.536 µM)	6.2 (≈ 8.52 µM)	> 100	> 100	> 100	> 100	> 100	0.39 (≈ 0.536 µM)	3.1 (≈ 4.26 µM)	MIC (ESCHERICHIA COLI H560): > 100 µg/mL; MIC [13]: > 100 µg/mL; MIC [14]: > 100 µg/mL; MIC [15]: 0.39 µg/mL (≈ 0.536 µM); MIC [16]: > 100 µg/mL; MIC [17]: 0.39 µg/mL (≈ 0.536 µM); MIC [18]: 0.05 µg/mL (≈ 0.0687 µM); MIC [19]: 0.05 µg/mL (≈ 0.0687 µM); MIC [20]: 0.39 µg/mL (≈ 0.536 µM); MIC [21]: > 100 µg/mL; MIC (CANDIDA ALBICANS CCH 442): > 100 µg/mL; MIC (H. Influenza Dill AMP R): 32 µg/mL (≈ 44 µM); MIC [22]: > 100 µg/mL; MIC (ESCHERICHIA COLI SS): 0.78 µg/mL (≈ 1.07 µM); MIC [23]: > 100 µg/mL
